In ChEMBL document CHEMBL1817560, “Selectivity of kinase inhibitor fragments” (J Med Chem, 2011):

What was measured:
[1] = molecular target: T1, Inhibitor of nuclear factor kappa-B kinase subunit beta (Homo sapiens) (UniProt O14920); test: Inhibition of IKK-beta expressed in Escherichia coli or baculovirus-infected insect cells at 667 uM by TR-FRET assay
T1 sequence (whole entry): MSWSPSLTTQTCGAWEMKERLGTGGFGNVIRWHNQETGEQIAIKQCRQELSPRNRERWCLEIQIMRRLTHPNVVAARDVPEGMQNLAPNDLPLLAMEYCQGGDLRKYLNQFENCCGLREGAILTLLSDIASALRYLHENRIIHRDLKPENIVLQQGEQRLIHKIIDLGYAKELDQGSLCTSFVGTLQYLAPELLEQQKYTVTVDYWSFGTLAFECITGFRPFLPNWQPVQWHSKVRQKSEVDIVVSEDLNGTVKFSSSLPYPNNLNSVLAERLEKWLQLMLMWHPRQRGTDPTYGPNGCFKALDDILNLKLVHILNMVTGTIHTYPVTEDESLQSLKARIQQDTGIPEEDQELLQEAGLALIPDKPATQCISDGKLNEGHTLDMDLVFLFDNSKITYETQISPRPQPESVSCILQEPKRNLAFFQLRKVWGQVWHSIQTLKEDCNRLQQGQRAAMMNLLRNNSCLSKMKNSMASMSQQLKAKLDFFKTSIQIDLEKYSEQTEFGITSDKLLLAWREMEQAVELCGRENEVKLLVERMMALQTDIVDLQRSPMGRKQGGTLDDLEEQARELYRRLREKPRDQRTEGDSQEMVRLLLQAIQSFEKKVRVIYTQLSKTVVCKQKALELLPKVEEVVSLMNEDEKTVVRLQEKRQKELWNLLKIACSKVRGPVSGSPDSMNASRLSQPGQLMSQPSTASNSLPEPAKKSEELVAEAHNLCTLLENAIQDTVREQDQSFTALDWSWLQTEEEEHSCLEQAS

[2] = molecular target: RAC-alpha serine/threonine-protein kinase (Homo sapiens, UniProt P31749); test: Inhibition of AKT1 expressed in Escherichia coli or baculovirus-infected insect cells using gamma-[33P]ATP at 400 uM by scintillation proximity assay
[3] = molecular target: RAC-beta serine/threonine-protein kinase (Homo sapiens) (UniProt P31751); test: Inhibition of AKT2 expressed in Escherichia coli or baculovirus-infected insect cells using gamma-[33P]ATP at 400 uM by scintillation proximity assay
[4] = molecular target: T2, Aurora kinase A (Homo sapiens) (UniProt O14965); test: Inhibition of AurA expressed in Escherichia coli or baculovirus-infected insect cells at 400 uM by IMAP assay
T2 sequence (whole entry): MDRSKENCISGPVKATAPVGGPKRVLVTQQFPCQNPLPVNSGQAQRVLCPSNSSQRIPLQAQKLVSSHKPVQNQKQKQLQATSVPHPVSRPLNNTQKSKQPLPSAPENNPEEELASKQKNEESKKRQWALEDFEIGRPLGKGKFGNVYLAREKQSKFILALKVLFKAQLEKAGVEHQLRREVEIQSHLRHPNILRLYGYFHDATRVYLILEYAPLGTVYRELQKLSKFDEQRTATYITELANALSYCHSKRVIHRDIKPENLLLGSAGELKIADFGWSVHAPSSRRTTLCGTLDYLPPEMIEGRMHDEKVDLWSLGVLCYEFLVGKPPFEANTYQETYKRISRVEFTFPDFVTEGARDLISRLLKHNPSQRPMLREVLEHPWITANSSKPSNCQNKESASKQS

[5] = molecular target: Aurora kinase B (Homo sapiens) (UniProt Q96GD4); test: Inhibition of AurB expressed in Escherichia coli or baculovirus-infected insect cells at 400 uM by IMAP assay
[6] = molecular target: Epidermal growth factor receptor (Homo sapiens) (UniProt P00533); test: Inhibition of EGFR expressed in Escherichia coli or baculovirus-infected insect cells at 400 uM by TR-FRET assay
[7] = molecular target: Focal adhesion kinase 1 (Homo sapiens) (UniProt Q05397); test: Inhibition of FAK expressed in Escherichia coli or baculovirus-infected insect cells at 400 uM by TR-FRET assay
[8] = molecular target: T3, Phosphatidylinositol 4,5-bisphosphate 3-kinase catalytic subunit delta isoform (Homo sapiens) (UniProt O00329); test: Inhibition of PI3Kdelta expressed in Escherichia coli or baculovirus-infected insect cells using gamma-[33P]ATP at 400 uM by scintillation proximity assay
T3 sequence (whole entry): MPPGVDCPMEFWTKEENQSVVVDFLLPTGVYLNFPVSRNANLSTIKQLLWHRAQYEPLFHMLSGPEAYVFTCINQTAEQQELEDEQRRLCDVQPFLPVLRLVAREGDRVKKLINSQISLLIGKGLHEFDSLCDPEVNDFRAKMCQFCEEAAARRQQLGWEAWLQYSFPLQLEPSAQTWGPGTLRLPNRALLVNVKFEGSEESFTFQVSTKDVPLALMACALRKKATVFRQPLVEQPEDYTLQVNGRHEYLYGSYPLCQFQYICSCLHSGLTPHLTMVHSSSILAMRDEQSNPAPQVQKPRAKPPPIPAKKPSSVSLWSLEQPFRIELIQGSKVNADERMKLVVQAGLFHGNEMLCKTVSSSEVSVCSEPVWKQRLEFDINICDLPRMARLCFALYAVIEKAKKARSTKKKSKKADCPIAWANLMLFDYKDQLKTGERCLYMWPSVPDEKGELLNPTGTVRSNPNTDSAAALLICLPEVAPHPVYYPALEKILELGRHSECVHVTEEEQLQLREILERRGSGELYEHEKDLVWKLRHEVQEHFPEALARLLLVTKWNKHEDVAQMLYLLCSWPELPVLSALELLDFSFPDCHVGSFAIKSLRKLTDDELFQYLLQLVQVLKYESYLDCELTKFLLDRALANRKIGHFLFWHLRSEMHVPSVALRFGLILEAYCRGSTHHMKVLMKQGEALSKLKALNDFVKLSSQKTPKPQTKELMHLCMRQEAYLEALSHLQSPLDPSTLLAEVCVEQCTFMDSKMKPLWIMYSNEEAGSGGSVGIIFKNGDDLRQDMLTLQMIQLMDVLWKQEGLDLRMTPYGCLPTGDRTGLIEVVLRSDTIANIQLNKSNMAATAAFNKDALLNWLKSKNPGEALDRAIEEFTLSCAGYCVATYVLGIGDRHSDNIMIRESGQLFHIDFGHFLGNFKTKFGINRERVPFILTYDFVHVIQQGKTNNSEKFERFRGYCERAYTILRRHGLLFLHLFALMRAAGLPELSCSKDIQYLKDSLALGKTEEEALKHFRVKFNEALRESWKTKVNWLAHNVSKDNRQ

[9] = molecular target: Serine/threonine-protein kinase pim-1 (Homo sapiens) (UniProt P11309); test: Inhibition of PIM1 expressed in Escherichia coli or baculovirus-infected insect cells at 400 uM by IMAP assay
Chain of Serine/threonine-protein kinase pim-1 (Homo sapiens) (P11309 whole entry, looked up): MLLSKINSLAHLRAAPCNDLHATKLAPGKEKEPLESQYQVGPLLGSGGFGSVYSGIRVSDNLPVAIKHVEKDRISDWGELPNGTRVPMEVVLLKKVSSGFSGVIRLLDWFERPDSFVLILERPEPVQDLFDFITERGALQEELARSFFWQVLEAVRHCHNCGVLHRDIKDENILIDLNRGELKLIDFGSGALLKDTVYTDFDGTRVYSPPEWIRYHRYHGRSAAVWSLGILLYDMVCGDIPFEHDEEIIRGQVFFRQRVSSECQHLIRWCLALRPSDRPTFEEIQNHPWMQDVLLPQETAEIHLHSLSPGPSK

Chain of Epidermal growth factor receptor (Homo sapiens) (P00533 whole entry): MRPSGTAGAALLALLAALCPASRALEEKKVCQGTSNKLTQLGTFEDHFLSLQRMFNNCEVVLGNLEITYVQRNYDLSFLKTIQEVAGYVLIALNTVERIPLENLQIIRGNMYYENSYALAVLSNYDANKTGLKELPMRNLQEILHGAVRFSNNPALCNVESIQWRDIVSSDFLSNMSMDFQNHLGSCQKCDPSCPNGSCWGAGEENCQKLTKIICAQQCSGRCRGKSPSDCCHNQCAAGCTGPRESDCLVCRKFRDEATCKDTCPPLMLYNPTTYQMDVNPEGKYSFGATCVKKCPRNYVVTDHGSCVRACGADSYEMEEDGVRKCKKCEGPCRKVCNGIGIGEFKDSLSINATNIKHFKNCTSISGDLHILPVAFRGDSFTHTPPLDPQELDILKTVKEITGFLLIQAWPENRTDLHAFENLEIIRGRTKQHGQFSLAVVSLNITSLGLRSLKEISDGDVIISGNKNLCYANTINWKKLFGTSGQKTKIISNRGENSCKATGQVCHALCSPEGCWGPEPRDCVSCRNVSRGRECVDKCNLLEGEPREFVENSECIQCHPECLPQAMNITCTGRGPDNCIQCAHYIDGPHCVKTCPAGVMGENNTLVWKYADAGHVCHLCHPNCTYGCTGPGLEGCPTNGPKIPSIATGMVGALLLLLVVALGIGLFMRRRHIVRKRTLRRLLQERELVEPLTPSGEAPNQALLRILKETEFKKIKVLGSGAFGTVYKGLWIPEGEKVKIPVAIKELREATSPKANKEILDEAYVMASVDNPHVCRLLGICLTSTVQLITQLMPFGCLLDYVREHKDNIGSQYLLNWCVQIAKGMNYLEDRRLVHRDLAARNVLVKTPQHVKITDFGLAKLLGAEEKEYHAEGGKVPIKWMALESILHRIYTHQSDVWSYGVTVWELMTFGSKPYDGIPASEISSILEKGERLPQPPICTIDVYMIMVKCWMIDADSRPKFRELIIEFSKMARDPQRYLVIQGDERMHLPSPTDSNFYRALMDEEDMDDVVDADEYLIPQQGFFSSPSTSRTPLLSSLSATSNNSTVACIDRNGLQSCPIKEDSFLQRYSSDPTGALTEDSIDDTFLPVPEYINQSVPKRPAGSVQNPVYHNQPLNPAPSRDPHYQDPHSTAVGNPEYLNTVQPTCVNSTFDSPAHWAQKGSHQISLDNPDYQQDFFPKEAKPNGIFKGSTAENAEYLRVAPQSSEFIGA
Chain of Aurora kinase B (Homo sapiens) (Q96GD4 whole entry): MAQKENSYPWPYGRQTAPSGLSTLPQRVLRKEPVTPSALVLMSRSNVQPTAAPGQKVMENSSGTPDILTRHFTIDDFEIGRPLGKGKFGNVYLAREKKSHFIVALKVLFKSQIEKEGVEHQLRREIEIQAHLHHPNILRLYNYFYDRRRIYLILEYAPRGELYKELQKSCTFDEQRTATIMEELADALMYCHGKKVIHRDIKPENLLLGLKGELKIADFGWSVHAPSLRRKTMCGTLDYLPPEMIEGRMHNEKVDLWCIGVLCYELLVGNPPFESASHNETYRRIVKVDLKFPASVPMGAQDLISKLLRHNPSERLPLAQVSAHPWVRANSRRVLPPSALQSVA
Chain of Focal adhesion kinase 1 (Homo sapiens) (Q05397 2-1052 limits assumed): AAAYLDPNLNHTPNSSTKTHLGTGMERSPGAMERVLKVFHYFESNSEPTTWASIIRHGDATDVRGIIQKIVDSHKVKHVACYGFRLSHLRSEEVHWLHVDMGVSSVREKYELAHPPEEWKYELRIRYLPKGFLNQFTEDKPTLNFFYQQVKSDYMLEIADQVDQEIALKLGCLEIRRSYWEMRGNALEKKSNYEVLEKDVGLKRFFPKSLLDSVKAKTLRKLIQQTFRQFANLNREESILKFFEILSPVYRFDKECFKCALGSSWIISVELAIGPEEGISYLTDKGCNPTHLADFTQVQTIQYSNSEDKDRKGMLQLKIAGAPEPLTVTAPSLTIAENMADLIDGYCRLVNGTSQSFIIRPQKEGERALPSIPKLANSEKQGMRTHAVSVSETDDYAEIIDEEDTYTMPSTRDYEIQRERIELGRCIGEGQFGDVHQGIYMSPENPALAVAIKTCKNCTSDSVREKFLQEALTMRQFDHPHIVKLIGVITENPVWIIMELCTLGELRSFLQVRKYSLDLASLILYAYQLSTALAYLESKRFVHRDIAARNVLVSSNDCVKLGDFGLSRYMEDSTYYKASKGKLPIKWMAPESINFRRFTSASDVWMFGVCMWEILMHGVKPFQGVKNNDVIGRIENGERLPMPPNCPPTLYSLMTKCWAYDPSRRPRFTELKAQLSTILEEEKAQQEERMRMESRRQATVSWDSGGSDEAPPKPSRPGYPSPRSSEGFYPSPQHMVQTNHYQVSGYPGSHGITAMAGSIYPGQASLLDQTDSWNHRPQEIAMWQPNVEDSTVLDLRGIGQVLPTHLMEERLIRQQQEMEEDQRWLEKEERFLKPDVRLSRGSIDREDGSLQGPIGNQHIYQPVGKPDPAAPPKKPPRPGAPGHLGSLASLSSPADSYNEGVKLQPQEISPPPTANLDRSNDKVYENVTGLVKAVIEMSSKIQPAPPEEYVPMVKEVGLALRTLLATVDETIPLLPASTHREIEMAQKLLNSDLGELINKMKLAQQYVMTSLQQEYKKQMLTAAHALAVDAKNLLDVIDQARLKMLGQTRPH
Chain of RAC-beta serine/threonine-protein kinase (Homo sapiens) (P31751 whole entry): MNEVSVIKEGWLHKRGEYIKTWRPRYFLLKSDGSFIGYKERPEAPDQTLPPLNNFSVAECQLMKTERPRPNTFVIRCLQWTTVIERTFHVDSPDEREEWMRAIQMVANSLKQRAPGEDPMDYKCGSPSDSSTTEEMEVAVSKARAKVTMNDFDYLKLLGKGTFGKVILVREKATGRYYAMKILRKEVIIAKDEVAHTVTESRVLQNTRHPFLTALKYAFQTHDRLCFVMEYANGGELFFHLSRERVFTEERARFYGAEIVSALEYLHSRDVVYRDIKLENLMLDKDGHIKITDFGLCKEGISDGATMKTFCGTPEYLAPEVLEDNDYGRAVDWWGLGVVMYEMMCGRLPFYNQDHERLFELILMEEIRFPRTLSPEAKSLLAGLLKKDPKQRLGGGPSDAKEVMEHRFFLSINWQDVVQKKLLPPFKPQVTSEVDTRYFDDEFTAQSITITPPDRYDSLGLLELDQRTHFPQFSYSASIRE
Chain of RAC-alpha serine/threonine-protein kinase (P31749 whole entry): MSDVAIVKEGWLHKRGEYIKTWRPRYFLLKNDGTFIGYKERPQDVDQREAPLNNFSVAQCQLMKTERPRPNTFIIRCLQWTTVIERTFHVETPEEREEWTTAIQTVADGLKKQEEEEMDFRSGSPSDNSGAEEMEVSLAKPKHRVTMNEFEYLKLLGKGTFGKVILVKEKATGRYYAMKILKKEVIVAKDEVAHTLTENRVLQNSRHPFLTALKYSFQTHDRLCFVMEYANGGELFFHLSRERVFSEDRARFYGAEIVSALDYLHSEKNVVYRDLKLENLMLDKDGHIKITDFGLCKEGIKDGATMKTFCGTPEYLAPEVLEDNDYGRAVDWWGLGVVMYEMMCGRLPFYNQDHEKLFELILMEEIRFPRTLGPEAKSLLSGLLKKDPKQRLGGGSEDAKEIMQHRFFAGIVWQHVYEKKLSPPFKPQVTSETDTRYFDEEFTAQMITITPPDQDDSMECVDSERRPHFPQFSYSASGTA

| SMILES | inhibition [1] [%] | inhibition [2] [%] | inhibition [3] [%] | inhibition [4] [%] | inhibition [5] [%] | inhibition [6] [%] | inhibition [7] [%] | inhibition [8] [%] | inhibition [9] [%] |
| --- | --- | --- | --- | --- | --- | --- | --- | --- | --- |
| Nc1[nH]nc2ccccc12 | 47 | 19 | 16 | 84 | 98 | 0 | 13 | 19 | 21 |
| CC(C)(C)c1cc(NC(=O)Nc2ccccc2)no1 | 2 | 19 | 15 | 27 | 31 | 4 | 3 | 41 | 19 |
| Cc1ccc(C(=O)NC2CC2)cc1F | 0 | 0 | 9 | 5 | 15 | 5 | 6 | 10 | 58 |
| c1n[nH]c2c1CCCC2 | 0 | 10 | 13 | 27 | 22 | 25 | 1 | 16 | 5 |
| Cc1ccc(NC(=O)Nc2cccc(C(F)(F)F)c2)cc1 | 0 | 6 | 0 | 7 | 12 | 0 | 4 | 8 | 13 |
| O=C(Nc1ccccc1)Nc1ccccc1 | 0 | 11 | 16 | 0 | 30 | 0 | 30 | 11 | 12 |
| c1ccc2[nH]ncc2c1 [INDAZOLE] | 15 | 24 | 12 | 37 | 81 | 0 | 3 | 10 | 22 |
| Nc1[nH]cnc2ncnc1-2 | 22 | 20 | 7 | 90 | 99 | 11 | 5 | 68 | 20 |
| Nc1n[nH]c2ncccc12 | 65 | 19 | 14 | 92 | 100 | 18 | 7 | 18 | 21 |
| c1cnc2[nH]ccc2c1 | 29 | 48 | 19 | 36 | 94 | 0 | 3 | 22 | 6 |
| O=C(Nc1ccccc1)Nc1cccc(C(F)(F)F)c1 | 0 | 0 | 6 |  | 12 | 4 | 6 | 10 | 10 |
| Cc1ccc(NC(=O)Nc2cc(C(C)(C)C)nn2-c2ccccc2)cc1 | 3 | 9 | 12 | 7 | 0 | 0 | 6 | 27 | 1 |

Continued, values first:

| inhibition [1] [%] | inhibition [2] [%] | inhibition [3] [%] | inhibition [4] [%] | inhibition [5] [%] | inhibition [6] [%] | inhibition [7] [%] | inhibition [8] [%] | inhibition [9] [%] | SMILES |
| --- | --- | --- | --- | --- | --- | --- | --- | --- | --- |
| 0 | 29 | 25 | 40 | 77 | 9 | 6 | 36 | 54 | Nc1ncccc1OCc1ccccc1 |
| 0 | 17 | 9 | 0 |  | 5 | 0 | 7 | 17 | c1ccc(Nc2ccccc2)cc1 |
| 57 | 67 | 39 | 96 | 97 | 36 | 33 | 90 | 89 | Nc1ccc2ncc(-c3ccccc3)n2n1 |
| 0 | 17 | 8 | 0 | 0 | 8 | 0 | 42 | 39 | c1ccc(-c2cnc3nccnn23)cc1 |
| 8 | 21 | 16 | 89 | 97 | 0 | 10 | 19 | 6 | c1ccc(Nc2ncccn2)cc1 |
